Tests used:
Palbociclib = compound: CC(=O)c1c(C)c2cnc(Nc3ccc(N4CCNCC4)cn3)nc2n(C2CCCC2)c1=O [Palbociclib]; details: max 10 µM
Outline: (§1)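 Viability was measured with CellTiter-Glo 2.0 luminescence after 72 hours of dosing at a final DMSO of typically 0.2%, and scaled between blank-well and DMSO-well means. Beforehand, cancer cell lines sat 24 hours at 37°C and 5% CO2 in 1536-well plates in 7.5 μl DMEM/F12 or RPMI with 10% FBS. A non-linear mixed effects model fitted two-parameter logistic curves to the dose responses. The single-agent IC50 comes from these fits.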

AZD1775 = compound: C=CCn1c(=O)c2cnc(Nc3ccc(N4CCN(C)CC4)cc3)nc2n1-c1cccc(C(C)(C)O)n1 [AZD1775]
Outline: as §1

Savolitinib = compound: C[C@@H](c1ccc2nccn2c1)n1nnc2ncc(-c3cnn(C)c3)nc21 [Savolitinib]; details: max 1 µM
Outline: as §1

Capivasertib = compound: C1CN(CCC1(C(=O)N[C@@H](CCO)C2=CC=C(C=C2)Cl)N)C3=NC=NC4=C3C=CN4 [Capivasertib]
Outline: as §1

AZD0156 = compound: CN(C)CCCOc1ccc(-c2ccc3ncc4c(c3c2)n(C2CCOCC2)c(=O)n4C)cn1 [AZD0156]
Outline: as §1

Prexasertib = compound: COc1cccc(OCCCN)c1-c1cc(Nc2cnc(C#N)cn2)n[nH]1 [Prexasertib]; details: max 1 µM
Outline: as §1

Trametinib = compound: CC(=O)Nc1cccc(-n2c(=O)n(C3CC3)c(=O)c3c(Nc4ccc(I)cc4F)n(C)c(=O)c(C)c32)c1 [Trametinib]; details: max 1 µM
Outline: as §1

Doxorubicin = compound: COc1cccc2c1C(=O)c1c(O)c3c(c(O)c1C2=O)C[C@@](O)(C(=O)CO)C[C@@H]3O[C@H]1C[C@H](N)[C@H](O)[C@H](C)O1 [Doxorubicin]; details: max 1 µM
Outline: as §1

Lapatinib = compound: CS(=O)(=O)CCNCc1ccc(-c2ccc3ncnc(Nc4ccc(OCc5cccc(F)c5)c(Cl)c4)c3c2)o1 [Lapatinib]; details: max 10 µM
Outline: as §1

AZD5991 = compound: Cc1c2c(nn1C)CSCc1cc(n(C)n1)CSc1cc(c3ccccc3c1)OCCCc1c(C(=O)O)n(C)c3c-2c(Cl)ccc13 [AZD5991]; details: max 1 µM
Outline: as §1

Dasatinib = compound: CC1=C(C(=CC=C1)Cl)NC(=O)C2=CN=C(S2)NC3=CC(=NC(=N3)C)N4CCN(CC4)CCO [Dasatinib]; details: max 2 µM
Outline: as §1

Selumetinib = compound: Cn1cnc2c(F)c(Nc3ccc(Br)cc3Cl)c(C(=O)NOCCO)cc21 [Selumetinib]
Outline: as §1

Crizotinib = compound: C[C@@H](Oc1cc(-c2cnn(C3CCNCC3)c2)cnc1N)c1c(Cl)ccc(F)c1Cl [Crizotinib]; details: max 10 µM
Outline: as §1

AZD7648 = compound: Cc1cc2ncnn2cc1Nc1ncc2c(n1)n(C1CCOCC1)c(=O)n2C [AZD7648]; details: max 10 µM
Outline: as §1

Taselisib = compound: Cc1nc(-c2cn3c(n2)-c2ccc(-c4cnn(C(C)(C)C(N)=O)c4)cc2OCC3)n(C(C)C)n1 [Taselisib]; details: max 10 µM
Outline: as §1

Alisertib = compound: COc1cc(Nc2ncc3c(n2)-c2ccc(Cl)cc2C(c2c(F)cccc2OC)=NC3)ccc1C(=O)O [Alisertib]; details: max 10 µM
Outline: as §1

AZD1390 = compound: CC(C)n1c(=O)n(C)c2cnc3cc(F)c(-c4ccc(OCCCN5CCCCC5)nc4)cc3c21 [AZD1390]; details: max 0.3 µM
Outline: as §1

AZD8186 = compound: C[C@@H](Nc1cc(F)cc(F)c1)c1cc(C(=O)N(C)C)cc2c(=O)cc(N3CCOCC3)oc12 [AZD8186]; details: max 3 µM
Outline: as §1

Gefitinib = compound: COc1cc2ncnc(Nc3ccc(F)c(Cl)c3)c2cc1OCCCN1CCOCC1 [Gefitinib]; details: max 10 µM
Outline: as §1

AZD4320 = compound: CN(CC[C@H](CSC1=CC=CC=C1)NC2=C(C=C(C=C2)S(=O)(=O)NC(=O)C3=CC=C(C=C3)N4CCC(CC4)[C@H](C5=CC=CC=C5C6=CC=C(C=C6)Cl)O)S(=O)(=O)C(F)(F)F)CCO [AZD4320]; details: max 1 µM
Outline: as §1

Venetoclax = compound: CC1(C)CCC(CN2CCN(c3ccc(C(=O)NS(=O)(=O)c4ccc(NCC5CCOCC5)c([N+](=O)[O-])c4)c(Oc4cnc5[nH]ccc5c4)c3)CC2)=C(c2ccc(Cl)cc2)C1 [Venetoclax]; details: max 1 µM
Outline: as §1

AZD6738 = compound: C[C@@H]1COCCN1C2=NC(=NC(=C2)C3(CC3)[S@](=N)(=O)C)C4=C5C=CNC5=NC=C4 [AZD6738]; details: max 10 µM
Outline: as §1

AZD2811 = compound: CCN(CCO)CCCOc1ccc2c(Nc3cc(CC(=O)Nc4cccc(F)c4)[nH]n3)ncnc2c1 [AZD2811]; details: max 1 µM
Outline: as §1

AZD5153 = compound: COc1nnc2ccc(N3CCC(c4ccc(OCCN5CCN(C)C(=O)[C@H]5C)cc4)CC3)nn12 [AZD5153]; details: max 1 µM
Outline: as §1

Olaparib = compound: O=C(c1cc(Cc2n[nH]c(=O)c3ccccc23)ccc1F)N1CCN(C(=O)C2CC2)CC1 [Olaparib]; details: max 10 µM
Outline: as §1

SG3199 = compound: CC1=CN2[C@@H](C1)C=NC3=CC(=C(C=C3C2=O)OC)OCCCCCOC4=C(C=C5C(=C4)N=C[C@@H]6CC(=CN6C5=O)C)OC [SG3199]; details: max 0.001 µM
Outline: as §1

SN-38 = compound: CCc1c2c(nc3ccc(O)cc13)-c1cc3c(c(=O)n1C2)COC(=O)[C@]3(O)CC [SN-38]; details: max 0.3 µM
Outline: as §1

Cell Line	IC50, cell viability 72 h (Palbociclib)	IC50, cell viability 72 h (AZD1775; max 3 µM)	IC50, cell viability 72 h (Savolitinib)	IC50, cell viability 72 h (Capivasertib; max 10 µM)	IC50, cell viability 72 h (AZD0156; max 3 µM)	IC50, cell viability 72 h (Prexasertib)	IC50, cell viability 72 h (Trametinib)	IC50, cell viability 72 h (Doxorubicin)	IC50, cell viability 72 h (Lapatinib)	IC50, cell viability 72 h (AZD5991)	IC50, cell viability 72 h (Dasatinib)	IC50, cell viability 72 h (Selumetinib; max 10 µM)	IC50, cell viability 72 h (Crizotinib)	IC50, cell viability 72 h (AZD7648)	IC50, cell viability 72 h (Taselisib)	IC50, cell viability 72 h (Alisertib)	IC50, cell viability 72 h (AZD1390)	IC50, cell viability 72 h (AZD8186)	IC50, cell viability 72 h (Gefitinib)	IC50, cell viability 72 h (AZD4320)	IC50, cell viability 72 h (Venetoclax)	IC50, cell viability 72 h (AZD6738)	IC50, cell viability 72 h (AZD2811)	IC50, cell viability 72 h (AZD5153)	IC50, cell viability 72 h (Olaparib)	IC50, cell viability 72 h (SG3199)	IC50, cell viability 72 h (SN-38)	IC50, cell viability 72 h (AZD1775; max 1 µM)	IC50, cell viability 72 h (Capivasertib; max 3 µM)	IC50, cell viability 72 h (AZD0156; max 1 µM)	IC50, cell viability 72 h (Selumetinib; max 3 µM)
639-V (Bladder Carcinoma)	> 10000 nM	2210 nM	> 1000 nM	> 10000 nM	> 3000 nM	948 nM	> 1000 nM	574 nM	> 10000 nM	> 1000 nM	1380 nM	> 10000 nM	> 10000 nM	> 10000 nM	2460 nM	2980 nM	> 300 nM	> 3000 nM	> 10000 nM	> 1000 nM	> 1000 nM	> 10000 nM	> 1000 nM	257 nM	> 10000 nM	> 1 nM	3.66 nM	–	–	–	–
CAL-51 (Breast Carcinoma)	> 10000 nM	583 nM	> 1000 nM	4410 nM	> 3000 nM	25.3 nM	> 1000 nM	415 nM	> 10000 nM	> 1000 nM	> 2000 nM	> 10000 nM	> 10000 nM	> 10000 nM	1300 nM	6960 nM	> 300 nM	> 3000 nM	> 10000 nM	> 1000 nM	> 1000 nM	1510 nM	> 1000 nM	469 nM	> 10000 nM	> 1 nM	53 nM	–	–	–	–
CTB-1 (B-Cell Non-Hodgkin's Lymphoma)	–	–	–	–	–	16.4 nM	> 1000 nM	248 nM	–	> 1000 nM	–	–	–	> 10000 nM	> 10000 nM	435 nM	–	> 3000 nM	–	> 1000 nM	> 1000 nM	2010 nM	249 nM	–	> 10000 nM	> 1 nM	7.48 nM	388 nM	> 3000 nM	> 1000 nM	> 3000 nM
HCC-15 (Squamous Cell Lung Carcinoma)	> 10000 nM	1350 nM	> 1000 nM	> 10000 nM	> 3000 nM	> 1000 nM	164 nM	> 1000 nM	> 10000 nM	> 1000 nM	> 2000 nM	4440 nM	> 10000 nM	> 10000 nM	> 10000 nM	181 nM	> 300 nM	> 3000 nM	> 10000 nM	216 nM	> 1000 nM	> 10000 nM	657 nM	> 1000 nM	> 10000 nM	> 1 nM	> 300 nM	–	–	–	–

Source: the supplement of paper PMC11061612
